From patent publication US20090234018A1, “Non-Standard Amino Acid Conjugates of Amphetamine and Processes for Making and Using the Same” (priority 2006, published 2009)
Read-outs that look alike come from different tables or passages of the source.

Assays:
[1] = Intranasal PK study of d-amphetamine, hArg-Amp, Orn-Amp (Example 10); conditions: rat; for % Tmax: relative to d-amp
[2] = PK of d-amphetamine after parenteral (intranasal, intravenous) administration of hArg-Amp (Example 1)
[3] = Oral PK study of Lys-Amp, hArg-Amp, Orn-Amp and Cit-Amp (Example 9); conditions: rat; for % Tmax: relative to Lys-Amp
[4] = Intravenous PK study of d-amphetamine, hArg-Amp, Orn-Amp (Example 11); conditions: rat, relative to d-amp
[5] = rat, oral; relative to hArg-Amp
[6] = Oral gavage PK study of Lys-Amp and hArg-Amp, plasma d-amphetamine by ELISA (Example 7); conditions: rat, relative to Lys-Amp
[7] = Average of 4 oral PK studies of Lys-Amp and hArg-Amp (Example 7, Table 3); conditions: average of 4 oral studies, n=20; relative to Lys-Amp
[8] = plasma d-amphetamine, given in minutes

C[C@@H](Cc1ccccc1)NC(=O)[C@@H](N)CCCCN=C(N)N.Cl.Cl [hArg-Amp, l-homoarginine-d-amphetamine dihydrochloride]
% Tmax [1]: 1600% | release of amphetamine [2]: < 50% | % Tmax [3]: 200% | % Tmax [4]: 100% | % Tmax [5]: 100% | % Tmax [6]: 133% | % Tmax [7]: 400%

1-citrulline-d-amphetamine hydrochloride [Cit-Amp]
Tmax compared to Lys-Amp [3]: significantly shifted the Tmax | Tmax [3, 8]: 15 m | % Tmax [3]: 25%

l-lysine-d-amphetamine [Lys-Amp, reference compound]
Cmax ([3]; plasma d-amphetamine): 59 ng/mL | % Tmax [3]: 100% | % Tmax [6]: 100% | % Tmax [7]: 100%

C[C@H](N)Cc1ccccc1 [d-amp, d-amphetamine]
Tmax [1, 8]: 15 m | % Tmax [1]: 100%
